Data on six compounds can be found in ChEMBL document CHEMBL6134923, “Novel Tricyclic Compounds as GSK3 Inhibitors” (ACS Med Chem Lett, 2025).

For assay [1], the target named is Glycogen synthase kinase-3 alpha (Homo sapiens, UniProt P49840). The assay is described as follows: Inhibition of N-terminal GST-tagged full-length recombinant human GSK-3alpha extracted from baculovirus infected Sf9 cells using biotinylated-phosphorylated glycogen synthase incubated for 100 mins in presence of ATP by TR-FRET assay.
The target in assay [2] is Glycogen synthase kinase-3 beta (Homo sapiens, UniProt P49841). Nature of the assay: Inhibition of N-terminal GST-tagged full-length recombinant human GSK-3beta extracted from baculovirus infected Sf9 cells using biotinylated-phosphorylated glycogen synthase incubated for 100 mins in presence of ATP by TR-FRET assay.
Chain of Glycogen synthase kinase-3 beta (P49841 whole entry): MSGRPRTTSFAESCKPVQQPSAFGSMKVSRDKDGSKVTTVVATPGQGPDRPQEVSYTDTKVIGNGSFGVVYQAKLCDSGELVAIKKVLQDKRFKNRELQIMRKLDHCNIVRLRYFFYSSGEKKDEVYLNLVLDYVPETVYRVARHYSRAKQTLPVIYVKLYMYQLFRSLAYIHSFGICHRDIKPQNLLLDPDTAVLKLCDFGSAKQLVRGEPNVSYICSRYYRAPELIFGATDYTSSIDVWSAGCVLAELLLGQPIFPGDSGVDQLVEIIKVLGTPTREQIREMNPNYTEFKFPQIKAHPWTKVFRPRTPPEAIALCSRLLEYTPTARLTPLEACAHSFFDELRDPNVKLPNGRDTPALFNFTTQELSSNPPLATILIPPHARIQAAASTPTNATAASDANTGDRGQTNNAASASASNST

Chain of Glycogen synthase kinase-3 alpha (P49840 whole entry): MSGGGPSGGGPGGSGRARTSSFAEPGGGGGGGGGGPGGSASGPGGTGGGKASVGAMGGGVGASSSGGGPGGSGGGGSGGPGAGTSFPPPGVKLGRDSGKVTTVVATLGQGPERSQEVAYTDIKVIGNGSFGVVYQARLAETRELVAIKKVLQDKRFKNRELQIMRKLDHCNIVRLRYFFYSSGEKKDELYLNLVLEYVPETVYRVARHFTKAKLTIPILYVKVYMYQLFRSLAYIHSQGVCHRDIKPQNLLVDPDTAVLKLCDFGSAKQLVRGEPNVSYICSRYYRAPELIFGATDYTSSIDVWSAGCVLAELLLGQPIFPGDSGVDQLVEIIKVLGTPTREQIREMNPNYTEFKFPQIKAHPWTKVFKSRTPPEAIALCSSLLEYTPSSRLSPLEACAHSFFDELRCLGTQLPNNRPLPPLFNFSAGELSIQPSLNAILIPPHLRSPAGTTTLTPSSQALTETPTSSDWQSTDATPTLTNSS

For `CC[C@]1(c2cccc(OC(C)C)c2)C2=C(CC(C)(C)CC2=O)Nc2n[nH]c(C(F)(F)F)c21`, the IC50 in assay [1] and in assay [2] was no more than 100 nM each time.
Turning to `CCC1(c2cccc(N3CC4CCC(C4)C3)c2)C2=C(CC(C)(C)CC2=O)Nc2n[nH]cc21` (configuration not stated), the IC50 in assay [1] is greater than 100 nM; in assay [2], greater than 1000 nM.
Regarding `CC[C@@]1(c2cccc(S(=O)(=O)C3CC3)c2)C2=C(CC(C)(C)CC2=O)Nc2n[nH]c(C(F)(F)F)c21`, the IC50 in assay [1] and in assay [2] was no more than 100 nM throughout.
In the case of `CC[C@@]1(c2cccc(-c3cc(C)ncc3C)c2)C2=C(CC(C)(C)CC2=O)Nc2n[nH]c(C(F)(F)F)c21`, the 50% inhibitory concentration (IC50) in assay [1] and in assay [2] was greater than 100 nM throughout.
Regarding `CC[C@@]1(c2cccc(-c3cncn3C)c2)C2=C(CC(C)(C)NC2=O)Nc2n[nH]c(C(F)(F)F)c21`, the IC50 in assay [1] and in assay [2] was no more than 100 nM each time.
For the compound `CC[C@@]1(c2cccc(C(F)(F)F)c2)C2=C(Nc3n[nH]cc31)[C@H](F)C(C)(C)CC2=O`, the IC50 in assay [1] and in assay [2] was no more than 100 nM throughout.
